The test system of data set [1] is Hepatitis B virus. Description: Antiviral activity against HBV infected in human HepG2.2.15 cells assessed as reduction in intracellular core HBV DNA level incubated for 6 days by qPCR analysis. The format is functional, organism-based. The following applies: HepG2.2.15, 144 h. For orientation: Quantitative PCR measures a nucleic acid by following its amplification.

Data set [2] in a line: AUC (0 to t) in BALB/c mouse at 10 mg/kg, po measured up to 24 hrs by HPLC analysis. Type of data set: ADME, organism-based. The arrangement: dose 10 mg/kg, time < 24 hrs, route po. The following applies: in vivo.
Data set [3] can be described thus: MRT (0 to t) in BALB/c mouse at 10 mg/kg, po measured up to 24 hrs by HPLC analysis. Type of data set: ADME, organism-based. The following applies: in vivo.
Data set [4] can be described thus: Cytotoxicity against human HepG2.2.15 cells assessed as reduction in cell viability incubated for 6 days by CCK-8 assay. The following applies: time 6 day. Type of data set: toxicity, cell-based, HepG2 2.2.15. A general note: Formazan colour is commonly taken as a measure of viable cells.
Data set [5] is described as follows: Elimination half life in BALB/c mouse at 10 mg/kg, po measured up to 24 hrs by HPLC analysis. The format is ADME, organism-based. The following applies: in vivo, read-out: beta t1/2 (converted).
Data set [6] in a line: Neurotoxicity against NGF induced rat PC-12 cells assessed as morphological changes by measuring appearance of shrunken cells with disappearance of neurites at 10 uM incubated for 48 hrs by phase contrast microscopic analysis. The following applies: pc-12, 48 h. The format is toxicity, cell-based.
The test system of data set [7] is Hepatitis B virus. Description: Antiviral activity against HBV infected in human HepG2.2.15 cells assessed as reduction in HBsAg level in cellular supernatant by luminescence based microplate reader analysis. Type of data set: functional, organism-based.
A short description of data set [8]: Tmax in BALB/c mouse at 10 mg/kg, po measured up to 24 hrs by HPLC analysis. Type of data set: ADME, organism-based. The following applies: in vivo.
For data set [9], the system named is Hepatitis B virus. Put plainly: Antiviral activity against HBV infected in human HepG2.2.15 cells assessed as reduction in HBeAg level in cellular supernatant by luminescence based microplate reader analysis. Type of data set: functional, organism-based.
A short description of data set [10]: Neurotoxicity against NGF induced rat PC-12 cells assessed as morphological changes by measuring appearance of round cells with disappearance of neurites at 10 uM incubated for 48 hrs by phase contrast microscopic analysis. As to conditions: pc-12, 48 h. Type of data set: toxicity, cell-based.
Data set [11] can be described thus: Cmax in BALB/c mouse at 10 mg/kg, po measured up to 24 hrs by HPLC analysis. The format is ADME, organism-based. The arrangement: dose 10 mg/kg, time < 24 hrs, route po. As to conditions: in vivo.
The nature of data set [12]: Neurotoxicity against NGF induced rat PC-12 cells assessed as morphological changes by measuring appearance of shrunken cells at 10 uM incubated for 48 hrs by phase contrast microscopic analysis. Type of data set: toxicity, cell-based. As to conditions: pc-12, 48 h.
The nature of data set [13]: Neurotoxicity against NGF induced rat PC-12 cells assessed as morphological changes by measuring appearance of clear neurites at 10 uM incubated for 48 hrs by phase contrast microscopic analysis. Type of data set: toxicity, cell-based. The following applies: pc-12, 48 h.

Usually EC50 stands for the midpoint of the concentration-response curve. Broadly, the IC50 is the concentration that gives 50% inhibition. As usually defined, the AUC(0-t) is exposure summed from dosing to a finite time, without extrapolation to infinity. Low values mean low exposure, high ones high exposure. By MRT last is commonly meant a mean duration of stay, worked out from the concentration-time curve. Broadly, the CC50 is the concentration at which the toxic effect on the cells reaches its halfway point. For orientation: Tmax means the time at which the peak concentration occurs. In general, Cmax refers to the peak of the concentration-time curve.

In the case of `COCCCOc1cc2c(cc1OC)-c1cc(=O)c(C(=O)O)cn1C(C(C)C)C2` (racemic), the EC50 stood at 1 nM in the data set on Hepatitis B virus [1], 1 nM in the data set with Hepatitis B virus [7] and 18.2 nM in the data set with Hepatitis B virus [9]. The IC50 in the data set with Hepatitis B virus [1] turned out to be 86.3 nM; with Hepatitis B virus [7], 5.1 nM; in the data set with Hepatitis B virus [9], 91.2 nM. In [2], this compound returned an AUC(0-t) at 24 h of 17.2 µM·h. In addition, in data set [3], the MRT last at 24 h was determined as 67.8 min. In addition, the CC50 at 144 h in data set [4] was greater than 50000 nM. Moreover, in data set [5], the half-life is 51 min. Moreover, the Activity entry in data set [6] and in data set [10] was “Toxic” in each case. In addition, the Tmax in [8] was 11.4 min. This compound also returned a Cmax in data set [11] of 11.6 µM.
Consider `COc1cc2c(cc1OCC1CCCO1)CC(C(C)C)n1cc(C(=O)O)c(=O)cc1-2` (stereo not drawn), for which the IC50 came out at 1.6 nM in the data set with Hepatitis B virus [1], 509 nM in the data set with Hepatitis B virus [7] and 27 nM in the data set with Hepatitis B virus [9]. This compound also displayed an AUC(0-t) at 24 h in data set [2] of 10.4 µM·h. In data set [3], this compound had an MRT last at 24 h of 65.4 min. Besides, the CC50 at 144 h in [4] is greater than 50000 nM. Further, the half-life in data set [5] is 39.6 min. Further, in data set [8], the Tmax was found to be 19.8 min. For the same compound, the Cmax in data set [11] worked out at 8.84 µM.
With `COc1cc2c(cc1OC[C@@H]1COc3cccnc3O1)C[C@@H](C(C)C)n1cc(C(=O)O)c(=O)cc1-2`, the EC50 in the data set on Hepatitis B virus [1] was 86.3 nM; with Hepatitis B virus [7], 6.3 nM; in the data set with Hepatitis B virus [9], 70 nM. Also, in data set [12], the Activity entry was “Toxic”.
Turning to `COc1cc2c(cc1OCc1ccc3c(c1)OCO3)C[C@@H](C(C)C)n1cc(C(=O)O)c(=O)cc1-2`, the EC50 with Hepatitis B virus [1] came out at 1.9 nM; in the data set with Hepatitis B virus [7], 0.8 nM; with Hepatitis B virus [9], 191 nM. Further, the Activity entry in [6] and in [10] was “Toxic” throughout.
As to `COc1cc2c(cc1OCc1ccc3c(c1)OCO3)CC(C(C)C)n1cc(C(=O)O)c(=O)cc1-2` (stereo not drawn), the concentration for half-maximal inhibition (IC50) in the data set with Hepatitis B virus [1] was determined as 5 nM; in the data set with Hepatitis B virus [7] it was 1.6 nM; in the data set on Hepatitis B virus [9] it was 66.7 nM. In [2], this compound showed an AUC(0-t) at 24 h of 4.46 µM·h. This compound gave a mean residence time (MRT last) at 24 h in data set [3] of 101 min. Further, in [4], the CC50 at 144 h was greater than 50000 nM. Besides, in data set [5], the half-life was 82.2 min. Besides, the Tmax in data set [8] turned out to be 49.8 min. Also, in [11], the peak level (Cmax) was 2.18 µM.
Take `COc1cc2c(cc1OC[C@H]1CCCO1)C[C@@H](C(C)C)n1cc(C(=O)O)c(=O)cc1-2`: the EC50 with Hepatitis B virus [1] amounted to 2.1 nM; in the data set on Hepatitis B virus [7], 5.1 nM; in the data set on Hepatitis B virus [9], 220 nM. Also, the Activity entry in [12] is “Toxic”.
The like results for `COc1cc2c(cc1OC[C@H]1COc3cccnc3O1)C[C@@H](C(C)C)n1cc(C(=O)O)c(=O)cc1-2` were, in that order, 1.4 nM, 1.4 nM, 104 nM and “Toxic”.
`COc1cc2c(cc1OC[C@@H]1CCCO1)C[C@@H](C(C)C)n1cc(C(=O)O)c(=O)cc1-2`: the EC50 came out at 0.6 nM with Hepatitis B virus [1], 1.6 nM in the data set on Hepatitis B virus [7] and 4.6 nM in the data set on Hepatitis B virus [9]. In addition, in data set [13], the Activity entry is given as “Non-Toxic”.

The values above are taken from ChEMBL document CHEMBL5137052, “Identification of dihydroquinolizinone derivatives with cyclic ether moieties as new anti-HBV agents” (Eur J Med Chem, 2022).
